Measurements: patent US9879050B2, “Substituted urea depsipeptide analogs as activators of the CLPP endopeptidase” (priority 2013, dated 2018)
In brackets after ≈: the same amount, converted by molar mass.

Columns and labels:
[1] = target: T1, Sa-ClpP (Staphylococcus aureus, UniProt Q2G036); assay: ClpP activation, EnzCheck Protease Assay with Bodipy-FL casein (second described method); format: biochemical, S. aureus; conditions: read-out: ClpP Activation EC50 (converted)
T1 construct: made in house; host or cells: E. coli BL21 (DE3)
T1 sequence (Q2G036 whole entry): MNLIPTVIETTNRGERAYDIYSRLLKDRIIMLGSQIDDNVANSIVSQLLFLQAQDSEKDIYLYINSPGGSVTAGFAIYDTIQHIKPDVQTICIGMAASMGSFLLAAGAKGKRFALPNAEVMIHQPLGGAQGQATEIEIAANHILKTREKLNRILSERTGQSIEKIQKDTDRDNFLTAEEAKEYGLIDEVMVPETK
Description: Alternatively, the assay was carried out using EnzCheck Protease Assay (Molecular Probes, Catalog #E6638). The assay was performed in black 384 well, flat bottom, low volume plates (Greiner Bio-One, Monroe, N.C., catalog #784076). 10 μL of Tris.HCl buffer, pH 8.0 with 0.01% Triton X-100 was pipetted into each well using a Well-Mate (Thermo Scientific, Waltham, Mass.). 0.4 μL test compounds or controls (2% DMSO v/v) were added to each well using a Biomek FX liquid handling robot (Beckman Coulter, Indianapolis Ind.). After addition of test compounds and controls, 10 μL of master mix containing 2 μM Sa-ClpP and 2 μM substrate (Bodipy-FL labeled casein) in Tris*HCl buffer, pH 8.0 with 0.01% (v/v) Triton X-100, was pipetted into each well. All assays were performed in triplicate, under linear velocity conditions. Increase in fluorescent signal following activation of Sa-ClpP by test compounds and controls was measured over time period of 30 mins using filters with excitation at 485±15 nm and emission at 520±25 nm on a PHERAstar FS Multilabel reader (BMG, Cary, N.C.). […] Data analysis was done by measuring rate of casein degradation over time (slopes). Computed degradation rates (slopes) were normalized to positive (ADEP4) or negative (DMSO) controls. Using nonlinear regression curve fitting EC50 values and % activation were determined using the equation “log [agonist]vs. Response-variable slope (four parameters)-symmetrical” in the program Prism 6 (GraphPad Software, La Jolla, Calif. USA, www.graphpad.com).

[2] = target: T1, Sa-ClpP; assay: ADEP displacement fluorescence polarization assay; format: binding, S. aureus; conditions: 1 μM Sa-ClpP, 50 nM FP probe ADEP 2591; read-out: ADEP Displacement IC50
Description: A fluorescence polarization (FP) assay was used to determine the activity of the disclosed compounds in displacing an ADEP analogue from ClpP. Briefly, the assay was performed in black 384 well, flat bottom, low volume plates (Greiner Bio-One, Monroe, N.C., catalog #784076). 20 μL of a pre-equilibrated (1 hr, room temperature) master mix (1 μM Sa-ClpP, 2% DMSO (v/v) and 50 nM FP probe in Tris*HCl, pH 8.0)) was pipetted into each well using a Well-Mate (Thermo Scientific, Waltham, Mass.). Sa-ClpP was prepared as described above for the ClpP activation assay. The FP probe was ADEP 2591 (structure shown above). The ADEP 2591 comprises a TAMRA fluorophore linked to a core based on modified ADEP 2378 via a short alkyl linker. Using pin transfer, approximately 0.4 μL (2% v/v DMSO) of each compound or control was added per well. After addition of compounds and controls, plates were allowed to incubate for an additional 120 minutes at room temperature. All assays were performed in triplicate. Polarization was monitored using an EnVision Multilabel reader (Perkin-Elmer, Waltham, Mass.) by exciting the FP probe at 530±25 nm, and monitoring fluorescence intensity of both parallel and perpendicular polarized light at 579±25 nm. Readout was in millipolarization units (mP).
Signal gain and G factors were determined in wells containing 20 μM ADEP 2378, which had been previously verified (data not shown) as containing completely unbound ADEP 2591. Data collected was normalized to values obtained from positive (20 μM ADEP 2378) or negative (DMSO) controls. Curves were fit with non-linear regression using the equation “log [inhibitor]vs. Response-variable slope (four parameters)-symmetrical” in the program Prism 6 (GraphPad Software, La Jolla, Calif. USA, www.graphpad.com). The structures for ADEP 2378 and ADEP 2591 are shown above. ADEP 2378 is (E)-N-((S)-1-(((2R,6S,8aS,14aS,20S,23aS)-2,6-dimethyl-5,8,14,19,23-pentaoxooctadecahydro-1H,5H,14H,19H-pyrido[2,1-i]dipyrrolo[2,1-c:2′,1′-1][1]oxa[4,7,10,13]tetraazacyclohexadecin-20-yl)amino)-1-oxo-3-phenylpropan-2-yl)pent-2-enamide. ADEP 2591 is 5-(3-(3-((6S,9S,11aS,17S,20aS)-6,10-dimethyl-5,8,11,16,20-pentaoxo-17-((S)-2-((E)-pent-2-enamido)-3-phenylpropanamido)hexadecahydro-1H,5H,16H-dipyrrolo[2,1-c:2′,1′-1][1]oxa[4,7,10,13]tetraazacyclohexadecin-9-yl)propyl)thioureido)-2-(6-(dimethylamino)-3-(dimethyliminio)-3H-xanthen-9-yl)benzoate.

[3] = Cytotoxicity assay, CellTiter-Glo cell viability; format: cell-based; conditions: African green monkey; Vero cells, 72 hours; read-out: Cytotoxicity IC50
Description: Cytotoxicity was determined by determining the effect of compounds on cell viability. Vero (kidney epithelial cells; ATCC CCL-81) monolayers were trypsinized and 5000 cells/well were seeded (10-15% confluency) into white-wall, flat bottom 96 well microwell plates (Corning) using enriched Dulbecco's Modified Eagle's Medium (Hyclone: DMEM/High Glucose) containing 10% Fetal Bovine Serum (ATCC-30-2020). Plates were incubated overnight at 37° C. in the presence of 5% CO2. Drug-free media was then replaced with media containing serial dilutions of test compound or DMSO carrier. After an additional 72 hours of incubation, viability was indirectly measured using the CellTiter-Glo® Luminescent Cell Viability (Promega) assay. Assay plates were read at peak emission wavelength of 560 nm using a EnVision® Multilabel Plate Reader (Perkin Elmer) or PHERAstar FS Multilabel reader (BMG, Cary, N.C.). […] USA, www.graphpad.com]. For each experiment, compounds were tested in duplicate. IC50 values presented are the range of two biologically independent experiments.

[4] = test system: S. aureus USA 300 ΔClpP; assay: Minimal inhibitory concentration, microbroth dilution; format: cell-based, Staphylococcus aureus; conditions: ClpP inactivated strain
Description: (§1) Minimal inhibitory concentrations (“MICs”) were determined using the microbroth dilution method according to Clinical Laboratory Standards Institute (CLSI; National, C.F. C. L. S., Methods for Dilution Antimicrobial Susceptibility Tests for Bacteria Grow aerobically-Seventh Edition: Approved Standard M7-A7, CLSI, Wayne, Pa., USA, 2008) and were read by visual inspection. Two fold serial dilutions of test compound in 100 μL of the appropriate broth media were first prepared in 96-well round bottom microtiter plates (Nalgene Nunc International, Rochester, N.Y., USA). An equivalent volume (100 μL) of bacterial broth inocula containing approximately 10^5 bacterial cfu/mL was added to each well to give final concentrations of test compound starting at 200 μM. The plates were then incubated aerobically at 37° C. All strains were incubated overnight. After incubations, in all cases the MIC was recorded as the lowest concentration of drug that prevented bacterial growth. The bacterial strains for which MIC was determined as described in Table 4.

[5] = test system: S. pneumoniae R6; assay: as above; format: cell-based; conditions: Streptococcus pneumoniae, R6, read-out: Minimal Inhibitory Concentration S. pneumoniae R6
Description: (§2) Minimal inhibitory concentrations (“MICs”) were determined using the microbroth dilution method according to Clinical Laboratory Standards Institute (CLSI; National, C.F. C. L. S., Methods for Dilution Antimicrobial Susceptibility Tests for Bacteria Grow aerobically-Seventh Edition: Approved Standard M7-A7, CLSI, Wayne, Pa., USA, 2008) and were read by visual inspection. Two fold serial dilutions of test compound in 100 μL of the appropriate broth media were first prepared in 96-well round bottom microtiter plates (Nalgene Nunc International, Rochester, N.Y., USA). […] The plates were then incubated aerobically at 37° C. All strains were incubated overnight. After incubations, in all cases the MIC was recorded as the lowest concentration of drug that prevented bacterial growth. The bacterial strains for which MIC was determined as described in Table 4.

[6] = test system: S. pyogenes ATCC 700294; assay: as above; format: cell-based; conditions: Streptococcus pyogenes, ATCC700294, read-out: Minimal Inhibitory Concentration S. pyogenes ATCC 700294
Description: as §2

[7] = test system: B. subtilis ATCC 23857; assay: as above; format: cell-based; conditions: Bacillus subtilis, ATCC23857, read-out: Minimal Inhibitory Concentration B. subtilis ATCC 23857
Description: as §1

[8] = test system: S. aureus ATCC 29213; assay: as above; format: cell-based; conditions: Staphylococcus aureus, ATCC29213, read-out: Minimal Inhibitory Concentration S. aureus ATCC 29213
Description: as §1

With `Cc1ccc(NC(=O)N[C@@H](Cc2cc(F)cc(F)c2)C(=O)N[C@@H]2C(=O)N3CCCC3C(=O)N(C)[C@@H](C)C(=O)N[C@@H](C)C(=O)N3CCCC3C(=O)O[C@H]2C)cc1` (stereo partly drawn) [Compound 25, (2S)-3-(3,5-Difluorophenyl)-N-((6S,9S,11aS,17S,18S)-6,9,10,18-Tetramethyl-5,8,11,16,20-Pentaoxohexadecahydro-1H,5H,16H-Dipyrrolo[2,1-C:2′,1′-L][1]Oxa[4,7,10,13]Tetraazacyclohexadecin-17-Yl)-2-(3-(P-Tolyl)Ureido)Propanamide] as the molecule, how does the EC50 [1] read?
The EC50 was 0.48 ± 0.03 µM.

And the IC50 [2]?
Its IC50 is 8.9 ± 0.3 µM.

What about the IC50 at 72 h [3] of the same molecule?
Its IC50 at 72 h is 10.8 ± 1 µM.

What about the “Minimal Inhibitory Concentration S. aureus USA 300 ΔClpP” value [4] of the same molecule?
The value was 200 µM.

What about the MIC [5] of the same molecule?
The MIC was 0.254 µM (≈ 0.195 µg/mL).

What about the MIC [6] of the same molecule?
The MIC was 1 µM (≈ 0.768 µg/mL).

What about the MIC [7] of the same molecule?
Its MIC is 0.02 µM (≈ 0.0154 µg/mL).

What about the MIC [8] of the same molecule?
The MIC was 0.78 µM (≈ 0.599 µg/mL).

Which EC50 [1] does the source give for `Cc1ccc(NC(=O)N[C@@H](Cc2cc(F)cc(F)c2)C(=O)N[C@H]2COC(=O)C3C[C@H](C)CN3C(=O)[C@H](C)NC(=O)C3CCCCN3C(=O)C3CCCN3C2=O)cc1C` (stereo partly drawn) [Compound 48, (S)-3-(3,5-Difluorophenyl)-N-((2S,6S,8aS,14aS,20S,23aS)-2,6-Dimethyl-5,8,14,19,23-Pentaoxooctadecahydro-1H,5H,14H,19H-Pyrido[2,1-I]Dipyrrolo[2,1-C:2′,1′-L][1]Oxa[4,7,10,13]Tetraazacyclohexadecin-20-Yl)-2-(3-(3,4-Dimethylphenyl)Ureido)Propanamide] here?
The EC50 was 0.7 ± 0.03 µM.

And the IC50 [2]?
Its IC50 is 8.1 ± 0.3 µM.

What about the “Minimal Inhibitory Concentration S. aureus USA 300 ΔClpP” value [4] of the same molecule?
Its value is 200 µM.

And the MIC [5]?
The MIC was 0.8 µM (≈ 0.646 µg/mL).

What about the MIC [6] of the same molecule?
Its MIC is 3.1 µM (≈ 2.5 µg/mL).

What about the MIC [7] of the same molecule?
Its MIC is 0.2 µM (≈ 0.162 µg/mL).

And the MIC [8]?
The MIC was 1.6 µM (≈ 1.29 µg/mL).

Which EC50 [1] does the source give for `Cc1ccc(NC(=O)N[C@@H](Cc2cc(F)cc(F)c2)C(=O)N[C@H]2COC(=O)C3CC(C)(C)CN3C(=O)[C@H](C)NC(=O)C3CCCCN3C(=O)C3CCCN3C2=O)cc1` (stereo partly drawn) [Compound 49, (S)-3-(3,5-Difluorophenyl)-2-(3-(P-Tolyl)Ureido)-N-((6S,8aS,14aS,20S,23aS)-2,2,6-Trimethyl-5,8,14,19,23-Pentaoxooctadecahydro-1H,5H,14H,19H-Pyrido[2,1-I]Dipyrrolo[2,1-C:2′,1′-L][1]Oxa[4,7,10,13]Tetraazacyclohexadecin-20-Yl)Propanamide] here?
Its EC50 is 2.3 ± 0.2 µM.

And the IC50 [2]?
The IC50 was 12.7 ± 0.2 µM.

And the “Minimal Inhibitory Concentration S. aureus USA 300 ΔClpP” value [4]?
The value was 100 µM.

What about the MIC [5] of the same molecule?
Its MIC is 6.3 µM (≈ 5.09 µg/mL).

And the MIC [6]?
Its MIC is 25 µM (≈ 20.2 µg/mL).

And the MIC [7]?
Its MIC is 0.4 µM (≈ 0.323 µg/mL).

What about the MIC [8] of the same molecule?
Its MIC is 12.5 µM (≈ 10.1 µg/mL).

Which EC50 [1] does the source give for `Cc1ccc(NC(=O)N[C@@H](Cc2cc(F)cc(F)c2)C(=O)N[C@H]2COC(=O)C3C[C@H](F)CN3C(=O)[C@H](C)NC(=O)C3CCCCN3C(=O)C3CCCN3C2=O)cc1` (stereo partly drawn) [Compound 50, (S)-3-(3,5-Difluorophenyl)-N-((2S,6S,8aS,14aS,20S,23aS)-2-Fluoro-6-Methyl-5,8,14,19,23-Pentaoxooctadecahydro-1H,5H,14H,19H-Pyrido[2,1-I]Dipyrrolo[2,1-C:2′,1′-L][1]Oxa[4,7,10,13]Tetraazacyclohexadecin-20-Yl)-2-(3-(P-Tolyl)Ureido)Propanamide] here?
The EC50 was 0.9 ± 0.07 µM.

And the IC50 [2]?
Its IC50 is 7.66 ± 0.2 µM.

What about the “Minimal Inhibitory Concentration S. aureus USA 300 ΔClpP” value [4] of the same molecule?
Its value is >200 µM.

What about the MIC [5] of the same molecule?
Its MIC is 0.8 µM (≈ 0.638 µg/mL).

And the MIC [6]?
The MIC was 1.6 µM (≈ 1.28 µg/mL).

What about the MIC [7] of the same molecule?
The MIC was > 200 µM.

And the MIC [8]?
The MIC was 3.1 µM (≈ 2.47 µg/mL).

For `Cc1ccc(NC(=O)N[C@@H](Cc2cc(F)cc(F)c2)C(=O)N[C@H]2COC(=O)C3C[C@@H](F)CN3C(=O)[C@H](C)NC(=O)C3CCCCN3C(=O)C3CCCN3C2=O)cc1` (stereo partly drawn) [Compound 51, (S)-3-(3,5-Difluorophenyl)-N-((2R,6S,8aS,14aS,20S,23aS)-2-Fluoro-6-Methyl-5,8,14,19,23-Pentaoxooctadecahydro-1H,5H,14H,19H-Pyrido[2,1-I]Dipyrrolo[2,1-C:2′,1′-L][1]Oxa[4,7,10,13]Tetraazacyclohexadecin-20-Yl)-2-(3-(P-Tolyl)Ureido)Propanamide], which EC50 [1] is on record?
The EC50 was 2.5 ± 0.2 µM.

And the IC50 [2]?
Its IC50 is 9.71 ± 0.3 µM.

What about the “Minimal Inhibitory Concentration S. aureus USA 300 ΔClpP” value [4] of the same molecule?
Its value is >200 µM.

And the MIC [5]?
Its MIC is 6.3 µM (≈ 5.03 µg/mL).

And the MIC [6]?
The MIC was 12.5 µM (≈ 9.97 µg/mL).

And the MIC [7]?
Its MIC is > 200 µM.

What about the MIC [8] of the same molecule?
The MIC was 12.5 µM (≈ 9.97 µg/mL).
